Ends that are not written are not given here.
Test system: mammary acini from tissue of lactating mice
Test: Mammary acini culture bioassay: secretion of [3H]leucine-labelled protein
Type: cell-based, mouse
Conditions: 0.01-10.0 μM, singly or in combination, 2 hours
Procedure: Mammary cells were prepared from tissue of lactating mice by collagenase digestion according to the method of K Hendry, K Simpson, K Nicholas & C Wilde. Journal of Molecular Endocrinology 21: 169-177 (1998). The resultant suspension of mammary acini consisted predominantly of groups of 50-200 cells, and was cultured in medium (Medium 199/Ham's F12: 50:50 v/v) containing insulin (5 μg/ml), hydrocortisone (0.1 μg/ml) and prolactin (1 μg/ml). Culture density was 1.5×10^6 cells/ml, and cells were maintained at 37° C. in an atmosphere of 5% CO2 in air. Protein synthesis and secretion were measured by continuous labelling with L-[4.5-3H]leucine ([…]; 10-20 μCi/ml) for 2 hours in the presence or absence of milk fractions (at concentrations of 0.2-4.0 μg/ml) or synthetic peptides (0.01-10 μM). […] Radiolabel incorporation was measured by precipitation with trichloroacetic acid (final concentration 10% w/v). […]
The amount of radiolabelled protein secreted by acini in the presence of milk extracts or synthetic peptides was expressed as a percentage of that produced by the cells to which no milk fraction or peptide was added. […]
Protein secretion was measured in mammary acini cultures in the presence and absence of synthetic peptides. […]

Row | Sequence | effect of synthetic peptides on protein secretion
1 | AVAVSQEAN (also: C-terminal cysteine) [Peptide B, nine amino acid synthetic peptide] | stimulatory effect
2 | RPKHPIKHQG [Peptide A] | inhibitory action

Reference: patent publication US20060178311A1, “Control of lactation” (Hannah Research Institute, priority 2003, published 2006)
